Data reported in ChEMBL document CHEMBL4765244, “Synthesis, bioconversion, pharmacokinetic and pharmacodynamic evaluation of N-isopropyl-oxy-carbonyloxymethyl prodrugs of CZh-226, a potent and selective PAK4 inhibitor” (Eur J Med Chem, 2020).

How the values were obtained:
[1] = Stability of the compound in human plasma assessed as compound remaining measured within 120 mins at 37 degC by HPLC analysis; type: ADME, cell-free; conditions: read-out: Stabilty
[2] = Stability of the compound in rat liver S9 fraction assessed as compound remaining measured after 60 mins at 37 degC by LC-MS/MS analysis; type: ADME, subcellular; conditions: read-out: Stabilty
[3] = AUC (0 to t) in Wistar rat at 10 mg/kg, po measured upto 24 hrs by LC/MS/MS; type: ADME, organism-based; design: route oral, dose 10 mg/kg, time <=24; conditions: in vivo
[4] = AUC (0 to infinity) in Wistar rat at 10 mg/kg, po measured upto 24 hrs by LC/MS/MS analysis; type: ADME, organism-based; design: route oral, dose 10 mg/kg, time <=24; conditions: in vivo
[5] = Half life in Wistar rat at 10 mg/kg, po measured upto 24 hrs by LC/MS/MS analysis; type: ADME, organism-based; conditions: in vivo
[6] = Tmax in Wistar rat at 10 mg/kg, po measured upto 24 hrs by LC/MS/MS analysis; type: ADME, organism-based; conditions: in vivo
[7] = Cmax in Wistar rat at 10 mg/kg, po measured upto 24 hrs by LC/MS/MS analysis; type: ADME, organism-based; design: route oral, dose 10 mg/kg, time <=24; conditions: in vivo
[8] = Oral bioavailability in Wistar rat assessed as (R)-(6-chloro-4-(5-cyclopropyl-1H-pyrazol-3-ylamino)quinazolin-2-yl)(3-methylpiperazin-1-yl)methanone hydrochloride at 10 mg/kg measured upto 24 hrs by LC/MS/MS analysis; type: ADME, organism-based; conditions: in vivo
[9] = Initial plasma concentration in Wistar rat at 2 mg/kg, iv measured upto 24 hrs by LC/MS/MS analysis; type: ADME, organism-based; conditions: in vivo
[10] = Clearance in Wistar rat at 2 mg/kg, iv measured upto 24 hrs by LC/MS/MS analysis; type: ADME, organism-based; conditions: in vivo
[11] = Volume of distribution in Wistar rat at 2 mg/kg, iv measured upto 24 hrs by LC/MS/MS analysis; type: ADME, organism-based; conditions: in vivo
[12] = Half life in Wistar rat at 2 mg/kg, iv measured upto 24 hrs by LC/MS/MS analysis; type: ADME, organism-based; conditions: in vivo
[13] = AUC (0 to infinity) in Wistar rat at 2 mg/kg, iv measured upto 24 hrs by LC/MS/MS analysis; type: ADME, organism-based; design: route intravenous, dose 2 mg/kg, time <=24; conditions: in vivo
[14] = AUC in Wistar rat at 2 mg/kg, iv measured upto 24 hrs by LC/MS/MS analysis; type: ADME, organism-based; design: route intravenous, dose 2 mg/kg, time <=24; conditions: in vivo
[15] = Chemical stability of the compound in pH 7.4 PBS buffer assessed as compound remaining measured after 2 hrs by HPLC analysis; type: physicochemical; conditions: read-out: Stabilty
[16] = Chemical stability of the compound in pH 1.2 simulated gastric fluid buffer assessed as compound remaining measured after 2 hrs by HPLC analysis; type: physicochemical
[17] = Chemical stability of the compound in pH 6.8 simulated intestinal fluid assessed as compound remaining measured after 2 hrs by HPLC analysis; type: physicochemical
[18] = Prodrug conversion in human plasma assessed as release of active metabolite (R)-(6-chloro-4-(5-cyclopropyl-1H-pyrazol-3-ylamino)quinazolin-2-yl)(3-methylpiperazin-1-yl)methanone hydrochloride measured within 120 mins at 37 degC by HPLC analysis; type: ADME, cell-free; conditions: 2 h
[19] = AUC in Wistar rat assessed as (R)-(6-chloro-4-(5-cyclopropyl-1H-pyrazol-3-ylamino)quinazolin-2-yl)(3-methylpiperazin-1-yl)methanone hydrochloride at 13.84 mg/kg, po measured upto 24 hrs by LC/MS/MS analysis; type: ADME, organism-based; design: route oral, dose 13.84 mg/kg, time <=24; conditions: in vivo
[20] = AUC (0 to infinity) in Wistar rat assessed as (R)-(6-chloro-4-(5-cyclopropyl-1H-pyrazol-3-ylamino)quinazolin-2-yl)(3-methylpiperazin-1-yl)methanone hydrochloride at 13.84 mg/kg, po measured upto 24 hrs by LC/MS/MS analysis; type: ADME, organism-based; design: route oral, dose 13.84 mg/kg, time <=24; conditions: in vivo
[21] = Half life in Wistar rat assessed as (R)-(6-chloro-4-(5-cyclopropyl-1H-pyrazol-3-ylamino)quinazolin-2-yl)(3-methylpiperazin-1-yl)methanone hydrochloride at 13.84 mg/kg, po measured upto 24 hrs by LC/MS/MS analysis; type: ADME, organism-based; conditions: in vivo
[22] = Tmax in Wistar rat assessed as (R)-(6-chloro-4-(5-cyclopropyl-1H-pyrazol-3-ylamino)quinazolin-2-yl)(3-methylpiperazin-1-yl)methanone hydrochloride at 13.84 mg/kg, po measured upto 24 hrs by LC/MS/MS analysis; type: ADME, organism-based; conditions: in vivo
[23] = Cmax in Wistar rat assessed as (R)-(6-chloro-4-(5-cyclopropyl-1H-pyrazol-3-ylamino)quinazolin-2-yl)(3-methylpiperazin-1-yl)methanone hydrochloride at 13.84 mg/kg, po measured upto 24 hrs by LC/MS/MS analysis; type: ADME, organism-based; design: route oral, dose 13.84 mg/kg, time <=24; conditions: in vivo
[24] = AUC in Wistar rat assessed as (R)-(6-chloro-4-(5-cyclopropyl-1H-pyrazol-3-ylamino)quinazolin-2-yl)(3-methylpiperazin-1-yl)methanone hydrochloride at 12.43 mg/kg, po measured upto 24 hrs by LC/MS/MS analysis; type: ADME, organism-based; design: route oral, dose 12.43 mg/kg, time <=24; conditions: in vivo
[25] = AUC (0 to infinity) in Wistar rat assessed as (R)-(6-chloro-4-(5-cyclopropyl-1H-pyrazol-3-ylamino)quinazolin-2-yl)(3-methylpiperazin-1-yl)methanone hydrochloride at 12.43 mg/kg, po measured upto 24 hrs by LC/MS/MS analysis; type: ADME, organism-based; design: route oral, dose 12.43 mg/kg, time <=24; conditions: in vivo
[26] = Half life in Wistar rat assessed as (R)-(6-chloro-4-(5-cyclopropyl-1H-pyrazol-3-ylamino)quinazolin-2-yl)(3-methylpiperazin-1-yl)methanone hydrochloride at 12.43 mg/kg, po measured upto 24 hrs by LC/MS/MS analysis; type: ADME, organism-based; conditions: in vivo
[27] = Tmax in Wistar rat assessed as (R)-(6-chloro-4-(5-cyclopropyl-1H-pyrazol-3-ylamino)quinazolin-2-yl)(3-methylpiperazin-1-yl)methanone hydrochloride at 12.43 mg/kg, po measured upto 24 hrs by LC/MS/MS analysis; type: ADME, organism-based; conditions: in vivo
[28] = Cmax in Wistar rat assessed as (R)-(6-chloro-4-(5-cyclopropyl-1H-pyrazol-3-ylamino)quinazolin-2-yl)(3-methylpiperazin-1-yl)methanone hydrochloride at 12.43 mg/kg, po measured upto 24 hrs by LC/MS/MS analysis; type: ADME, organism-based; design: route oral, dose 12.43 mg/kg, time <=24; conditions: in vivo
[29] = AUC in Wistar rat assessed as (R)-(6-chloro-4-(5-cyclopropyl-1H-pyrazol-3-ylamino)quinazolin-2-yl)(3-methylpiperazin-1-yl)methanone hydrochloride at 14.18 mg/kg, po measured upto 24 hrs by LC/MS/MS analysis; type: ADME, organism-based; design: route oral, dose 14.18 mg/kg, time <=24; conditions: in vivo
[30] = AUC (0 to infinity) in Wistar rat assessed as (R)-(6-chloro-4-(5-cyclopropyl-1H-pyrazol-3-ylamino)quinazolin-2-yl)(3-methylpiperazin-1-yl)methanone hydrochloride at 14.18 mg/kg, po measured upto 24 hrs by LC/MS/MS analysis; type: ADME, organism-based; design: route oral, dose 14.18 mg/kg, time <=24; conditions: in vivo
[31] = Half life in Wistar rat assessed as (R)-(6-chloro-4-(5-cyclopropyl-1H-pyrazol-3-ylamino)quinazolin-2-yl)(3-methylpiperazin-1-yl)methanone hydrochloride at 14.18 mg/kg, po measured upto 24 hrs by LC/MS/MS analysis; type: ADME, organism-based; conditions: in vivo
[32] = Tmax in Wistar rat assessed as (R)-(6-chloro-4-(5-cyclopropyl-1H-pyrazol-3-ylamino)quinazolin-2-yl)(3-methylpiperazin-1-yl)methanone hydrochloride at 14.18 mg/kg, po measured upto 24 hrs by LC/MS/MS analysis; type: ADME, organism-based; conditions: in vivo
[33] = Cmax in Wistar rat assessed as (R)-(6-chloro-4-(5-cyclopropyl-1H-pyrazol-3-ylamino)quinazolin-2-yl)(3-methylpiperazin-1-yl)methanone hydrochloride at 14.18 mg/kg, po measured upto 24 hrs by LC/MS/MS analysis; type: ADME, organism-based; design: route oral, dose 14.18 mg/kg, time <=24; conditions: in vivo

Structure (SMILES) | remaining at 2 h [1] | remaining at 1 h [2] | remaining at 2 h [15] | Drug metabolism [18] | Stability [16] | Stability [17] | also measured
CCOC(=O)N1CCN(C(=O)c2nc(Nc3cc(C4CC4)[nH]n3)c3cc(Cl)ccc3n2)C[C@H]1C | 85.3% | 48.5% | 97.7% | 14.8% | 89.5% | 92.9% | –
C[C@@H]1CN(C(=O)c2nc(Nc3cc(C4CC4)[nH]n3)c3cc(Cl)ccc3n2)CCN1C(=O)OCOC(=O)C(C)(C)C | 0% | 47% | 97.7% | 94% | 83.9% | 93% | AUC [19]: 28.8 ng·h/mL; AUC [20]: 67.6 ng·h/mL; t1/2 [21]: 30.204 h; Tmax [22]: 4.98 min; Cmax [23]: 2.8 ng/mL
CC(C)COC(=O)N1CCN(C(=O)c2nc(Nc3cc(C4CC4)[nH]n3)c3cc(Cl)ccc3n2)C[C@H]1C | 73.7% | 61.1% | 99% | 25.7% | 70.2% | 88.8% | AUC [24]: 63.5 ng·h/mL; AUC [25]: 111.2 ng·h/mL; t1/2 [26]: 16.723 h; Tmax [27]: 1.5 h; Cmax [28]: 7.4 ng/mL
CCCCCOC(=O)N1CCN(C(=O)c2nc(Nc3cc(C4CC4)[nH]n3)c3cc(Cl)ccc3n2)C[C@H]1C | 74.4% | 63.9% | 99.8% | 21.4% | 88.4% | 90.7% | –
C[C@@H]1CN(C(=O)c2nc(Nc3cc(C4CC4)[nH]n3)c3cc(Cl)ccc3n2)CCN1C(=O)OCC(Cl)(Cl)Cl | 79% | 78.9% | 98.7% | 16.3% | 88.5% | 88.2% | –
CC(OC(=O)N1CCN(C(=O)c2nc(Nc3cc(C4CC4)[nH]n3)c3cc(Cl)ccc3n2)C[C@H]1C)OC(=O)C(C)(C)C (stereo not given in full) | 49.4% | 66.3% | 90.5% | 46.3% | 92.2% | 88.7% | AUC [29]: 35.1 ng·h/mL; AUC [30]: 44.2 ng·h/mL; t1/2 [31]: 8.378 h; Tmax [32]: 8 h; Cmax [33]: 3.9 ng/mL

Second part, led by results:

remaining at 2 h [1] | remaining at 1 h [2] | remaining at 2 h [15] | Drug metabolism [18] | Structure (SMILES) | Stability [16] | Stability [17] | also measured
97.4% | 53.9% | – | – | C[C@@H]1CN(C(=O)c2nc(Nc3cc(C4CC4)[nH]n3)c3cc(Cl)ccc3n2)CCN1.Cl | – | – | AUC(0-t) at 24 h [3]: 106 ng·h/mL; AUC(0-inf) [4]: 108 ng·h/mL; half-life [5]: 3.9 h; Tmax [6]: 4.98 min; Cmax [7]: 14.9 ng/mL; F [8]: 1.92%; C0 [9]: 4520 ng/mL; clearance [10]: 29.7 mL/min/kg; Vd [11]: 12.4 L/kg; half-life [12]: 4.8 h; AUC(0-inf) [13]: 1120 ng·h/mL; AUC at 24 h [14]: 1110 ng·h/mL
86.2% | 45.6% | 97.7% | 13.5% | C[C@@H]1CN(C(=O)c2nc(Nc3cc(C4CC4)[nH]n3)c3cc(Cl)ccc3n2)CCN1C(=O)OCc1ccccc1 | 84.7% | 93.6% | –
84.6% | 34.2% | 100% | 13.4% | COC(=O)N1CCN(C(=O)c2nc(Nc3cc(C4CC4)[nH]n3)c3cc(Cl)ccc3n2)C[C@H]1C | 95.2% | 91.5% | –
78.5% | 78.6% | 99% | 18.7% | CC(C)OC(=O)N1CCN(C(=O)c2nc(Nc3cc(C4CC4)[nH]n3)c3cc(Cl)ccc3n2)C[C@H]1C | 70.2% | 94.4% | –
17.4% | 11% | 96.6% | 78.8% | CC(OC(=O)C(C)C)OC(=O)N1CCN(C(=O)c2nc(Nc3cc(C4CC4)[nH]n3)c3cc(Cl)ccc3n2)C[C@H]1C (stereo not given in full) | 62.5% | 88.6% | AUC [19]: 50 ng·h/mL; AUC [20]: 59.6 ng·h/mL; t1/2 [21]: 10.35 h; Tmax [22]: 4.98 min; Cmax [23]: 28.3 ng/mL
73.7% | 71.3% | 99.1% | 20.7% | C[C@@H]1CN(C(=O)c2nc(Nc3cc(C4CC4)[nH]n3)c3cc(Cl)ccc3n2)CCN1C(=O)OC(C)(C)C | 37.1% | 90.2% | –
